The values below come from a melting point compilation (Tetko et al.; mined from patent text by program, amines drawn as free bases though some values may be those of a salt).

`COc1ccc(-n2nc(O)c3c(=O)c4ccc(Cl)cc4[nH]c3c2=O)cc1` registered a melting point of 371 to 373 °C.

As to `C=CCS(=O)(=O)c1ncc(Cl)cn1`, the melting point is 84 °C.

The compound `Cc1cn(-c2cc(NC(=O)c3cccc4cc(O)ccc34)cc(C(F)(F)F)c2)cn1` had a melting point of 169 to 172 °C.

The compound `CCCNc1cc(Nc2ccc(OC)cc2)ncn1` had a melting point of 194 to 196 °C.

`CC(C)CC1N=C(c2ccccc2)c2cc(Cl)ccc2NC1=O` (stereo not given) had a melting point of 213 °C.

With `COc1cc2c(cc1C(F)(F)F)N(C(=O)Nc1ccc(F)c(-c3cccnc3)c1)CC2`, the melting point was in the range of 210 to 212 °C.

In turn, `Cc1nnc2ccc(-c3ccc([N+](=O)[O-])c(C(F)(F)F)c3)nn12` had a melting point of 293 to 295 °C.

As to `CSC(=CC(=O)c1cncc(F)c1)SC`, the melting point was in the range of 150 to 152 °C.

In turn, `CCC1(CCOS(C)(=O)=O)C(=O)N2CC=CC(C(=O)OC)N2C1=O` (stereo not given) showed a melting point of 94 to 96 °C.

`CCOC(=O)C1=C(C)NC(c2ccc([N+](=O)[O-])cc2)=C(C(=O)OCC)C1c1cccc([N+](=O)[O-])c1` (stereo not given) had a melting point of 176 to 177 °C.

On to `CCCCCN(CCCCC)C(=O)[C@H]1Cc2c([nH]c3ccccc23)CN1C(=O)Nc1cccc(C)c1`, for which the melting point fell in the range of 154 to 155 °C.

For `OCCc1ccc(Nc2ncc3c(n2)-c2ccccc2C(c2ccc(Cl)c(Cl)c2)C3)cc1` (stereo not given), the melting point lay within 94 to 96 °C.

With `CSc1cn(C(c2ccccc2)(c2ccccc2)c2ccccc2)c(F)n1`, the melting point fell in the range of 142 to 143 °C.

`Cn1cc(C(=O)c2cccc(Cl)c2)cc1C(=O)O` displayed a melting point of 214 °C.

The compound `Cn1ncc(C(=O)N2CCOCC2)c1C(=O)Nc1ccn2nc(N3CCOCC3)nc2c1` had a melting point of 206 to 208 °C.

`CC(=O)c1c(C)c(C#N)c2nc(C3CC3)oc2c1N1CC[C@H](N(C)C)C1` returned a melting point of 142 °C.

With `Cc1cccc(C(=O)N(NC(=O)NS(=O)(=O)c2ccc(Cl)cc2)C(C)(C)C)c1`, the melting point was in the range of 184 to 188 °C.

Compound `COc1cc(Cc2cnc(N)nc2N)cc(OC)c1N(C)N=O` came in with a melting point of 249 to 250 °C.

For `CSc1nc(C)nc(SC)c1NC(=O)CCCCCSc1nc2ccccc2o1`, the melting point was 148 to 151 °C.

`Cc1cccc(C(=O)O)c1N(C)S(=O)(=O)c1ccc(OCCCNC(=O)c2ccc3c(c2)OCO3)cc1` registered a melting point of 120 °C.

For `CCOC(=O)CCCCCCC1C(=O)NC(=O)N1CCC(O)C1CCCCC1` (stereo not given), the melting point is 62 to 63 °C.

`Cc1c(Br)c2c(c(C)c1NC(=O)OC(C)(C)C)CC(C)O2` (stereo not given): the melting point fell in the range of 115 to 116 °C.

The compound `CCOC(=O)/C=C(C)/C=C/C=C(\C)C1=Cc2cc(C34CC5CC(CC(C5)C3)C4)ccc2OC1` showed a melting point of 178 to 179 °C.

In turn, `CCC(C)c1nn(-c2ccc(C(F)(F)F)cn2)cc1CCCOc1c(C)cccc1CC(=O)O` (stereo not given) had a melting point of 134 to 135 °C.

In turn, `CCOC(=O)c1ccc(C(=O)c2ccc(N)cc2)cc1` came in with a melting point of 125 °C.

The compound `CN(C)c1ncc(-c2cc(Cl)cc(Cl)c2Cl)c(N)n1` returned a melting point of 145 to 147 °C.

Regarding `CC(C)Oc1ccc([N+](=O)[O-])cc1OCCN1C(=O)c2ccccc2C1=O`, the melting point was 132 °C.

`Cc1csc2c1c(N1CCN(C(=O)c3cccs3)CC1)c(C#N)c(=O)n2Cc1ccccc1` registered a melting point of 223 °C.

The compound `N#Cc1cnn(-c2c(Cl)cc(Cl)cc2Cl)c1N` came in with a melting point of 208 to 210 °C.

Consider `CNC(=O)C(Cc1ccc(OC)cc1)NC(=O)C(CC(C)C)C(S)CC(=O)OC(C)(C)C` (stereo not given), for which the melting point is 133 to 137 °C.

Consider `CC(=O)OCC(=O)c1ccc(C)cc1`, for which the melting point came out at 85 °C.

`COc1cnn(-c2cc(Cl)cc(Cl)c2)c(=O)n1` registered a melting point of 164 °C.

`Cn1c(=O)c2ccc(N)nc2n(C)c1=O` displayed a melting point of 290 to 295 °C.

Consider `COC(=O)c1cc(N)nn1C`, for which the melting point lay in the range of 114 to 118 °C.

In the case of `CC1=NN=C(c2ccc([N+](=O)[O-])cc2)c2ccc(Cl)cc2C1`, the melting point is 227 to 228 °C.
